Like-named read-outs stand apart in the source and are kept apart here.
How the values were obtained:
[1] = biological target: recombinant human NF-kappaB-inducing kinase (NIK/MAP3K14) (Homo sapiens, UniProt Q99558); assay: Biological Assay B: inhibition of auto-phosphorylation of recombinant human NIK/MAP3K14 (AlphaScreen), performed at 2 locations; type: biochemical; details: averaged values
How it was run: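 GST-tagged NIK (0.2 nM) auto-phosphorylation with 25 microM ATP in 50 mM Tris pH 7.5, 5 mM MgCl2, 1% DMSO, 1 h at 25° C. Anti-phospho-IKK Ser176/180 AlphaScreen readout; blank-subtracted IC50 from sigmoidal fit. Run at two sites.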

[2] = system: P-IKKα levels in L363 (NIK translocated multiple myeloma) cells; assay: Biological Assay C: effect of compounds on P-IKKα levels in L363 (NIK translocated multiple myeloma) cells, performed at 2 locations; type: cell-based, human; details: averaged values
Experimental: Effect of Compounds on P-IKKα Levels in L363 (NIK Translocated Multiple Myeloma) Cells
All compounds tested were dissolved in DMSO and further dilutions were made in culture medium. Final DMSO concentration was 1% (v/v) in cell assays. The human L363 cells (ATCC) were cultured in RPMI 1640 medium supplemented with GlutaMax and 10% fetal calf serum (PAA). Cells were routinely maintained at densities of 0.2×10^6 cells per ml-1×10^6 cells per ml at 37° C. in a humidified 5% CO2 atmosphere. Cells were passaged twice a week splitting back to obtain the low density. Cells were seeded in 96 well plates (Nunc 167008) at 2×10^6 per ml media in a volume of 75 μl per well plus 25 μl […] recombinant human B-cell activating factor (BAFF/BLyS/TNFSF13B). Seeded cells were incubated at 37° C. in a humidified 5% CO2 atmosphere for 24 hr. Drugs and/or solvents were added (20 μl) to a final volume of 120 μl. Following 2 hr treatment plates were removed from the incubator and cell lysis was achieved by the addition of 30 μl 5× lysis buffer followed by shaking on a plate shaker at 4° C. for 10 min. At the end of this incubation lysed cells were centrifuged at 800×g for 20 min at 4° C. and the lysate was assessed for P-IKKα levels by sandwich immuno-assay carried out in anti-rabbit antibody coated Mesoscale plates. Within an experiment, the results for each treatment were the mean of 2 replicate wells. For initial screening purposes, compounds were tested using an 8 point dilution curve (serial 1:3 dilutions). For each experiment, controls (containing MG132 and BAFF but no test drug) and a blank incubation (containing MG132 and BAFF and 1 μM ADS125117, a test concentration known to give full inhibition) were run in parallel. The blank incubation value was subtracted from all control and sample values. To determine the IC50 a sigmoidal curve was fitted to the plot of % inhibition of control P-IKKα levels versus Log10 compound concentration.
Assay C was performed at 2 different locations.
Data for the compounds of the invention in the above assays are provided in Table A (the values in Table are averaged values over all measurements on all batches of a compound; values as IC50 (nM)). (‘n.c.’ means not calculated: ‘Co.’ means compound)

[3] = location 1, AlphaScreen auto-phosphorylation, read-out: Assay B location 1 IC50
[4] = Homo sapiens, L-363, location 1, L363 cells, P-IKKα levels, read-out: Assay C location 1 IC50
[5] = location 2, AlphaScreen auto-phosphorylation, read-out: Assay B location 2 IC50
[6] = Homo sapiens, L-363, location 2, L363 cells, P-IKKα levels, read-out: Assay C location 2 IC50
[7] = location 1, NIK auto-phosphorylation, AlphaScreen, read-out: Assay B location 1 IC50
[8] = Homo sapiens, L-363, 2 h, location 1, P-IKKα levels in L363 cells, 2 hr treatment, read-out: Assay C location 1 IC50

recombinant human NF-kappaB-inducing kinase (NIK/MAP3K14), sequence (Q99558 whole entry): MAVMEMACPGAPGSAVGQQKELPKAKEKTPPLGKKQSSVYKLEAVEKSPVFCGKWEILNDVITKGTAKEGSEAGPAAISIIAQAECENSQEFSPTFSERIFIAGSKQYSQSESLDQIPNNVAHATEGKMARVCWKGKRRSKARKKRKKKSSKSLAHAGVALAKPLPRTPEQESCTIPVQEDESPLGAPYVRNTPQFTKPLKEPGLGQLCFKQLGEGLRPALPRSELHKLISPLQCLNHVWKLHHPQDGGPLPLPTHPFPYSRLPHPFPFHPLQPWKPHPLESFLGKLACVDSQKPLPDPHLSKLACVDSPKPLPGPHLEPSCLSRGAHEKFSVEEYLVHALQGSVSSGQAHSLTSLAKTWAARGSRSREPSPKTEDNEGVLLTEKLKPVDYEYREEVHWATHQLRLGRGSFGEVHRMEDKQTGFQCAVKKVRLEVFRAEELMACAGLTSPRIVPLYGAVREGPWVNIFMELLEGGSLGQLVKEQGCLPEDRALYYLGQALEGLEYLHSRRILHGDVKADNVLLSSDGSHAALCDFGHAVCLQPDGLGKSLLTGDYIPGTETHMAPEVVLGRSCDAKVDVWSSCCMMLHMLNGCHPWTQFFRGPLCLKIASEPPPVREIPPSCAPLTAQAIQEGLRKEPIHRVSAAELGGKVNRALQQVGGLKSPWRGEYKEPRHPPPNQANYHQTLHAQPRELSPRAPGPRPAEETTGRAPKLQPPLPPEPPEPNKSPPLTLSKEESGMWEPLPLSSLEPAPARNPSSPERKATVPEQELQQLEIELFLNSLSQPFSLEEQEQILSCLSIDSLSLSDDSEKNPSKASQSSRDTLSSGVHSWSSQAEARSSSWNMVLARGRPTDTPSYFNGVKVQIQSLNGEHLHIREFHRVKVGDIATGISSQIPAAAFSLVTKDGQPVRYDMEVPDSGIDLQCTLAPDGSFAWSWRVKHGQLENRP

COc1cc(S(C)(=O)=O)c(Cl)cc1Nc1nccc(-c2cnc3c(c2)C(C)(CO)CN3)n1 (stereo not drawn) [Compound 331]
IC50 [1, 3]: 0.0065 µM
IC50 [2, 4]: 0.0794 µM

COc1cc(C(=O)N2CCN(C)CC2)ccc1Nc1nccc(-c2cnc3c(c2)C(C)(CO)CN3)n1 (stereo not drawn) [Compound 143]
IC50 [1, 3]: 0.017 µM
IC50 [1, 5]: 0.0145 µM
IC50 [2, 6]: 0.224 µM

CC1(CO)CNc2ncc(-c3ccnc(Nc4cc(Cl)ccc4S(C)(=O)=O)n3)cc21 (stereo not drawn) [Compound 335]
IC50 [1, 3]: 0.269 µM
IC50 [2, 4]: > 10 µM

COc1cc(N2CCN(C)CC2)c(Cl)cc1Nc1nccc(-c2cnc3c(c2)C(C)(CO)CN3)n1 (stereo not drawn) [Compound 267]
IC50 [1, 3]: 0.0047 µM
IC50 [1, 5]: 0.0005 µM
IC50 [2, 4]: 0.0288 µM

COc1cc(C(=O)N2CCCC2)ccc1Nc1nccc(-c2cnc3c(c2)C(C)(CO)CN3)n1 (stereo not drawn) [Compound 138]
IC50 [1, 5]: 0.0063 µM
IC50 [2, 6]: 0.234 µM

COc1ccccc1Nc1nccc(-c2cnc3c(c2)C(C)(CO)CN3)n1 (stereo not drawn) [Compound 151]
IC50 [1, 5]: 0.0178 µM
IC50 [2, 4]: ~0.912 µM
IC50 [2, 6]: 0.676 µM

CC1(CO)CNc2ncc(-c3ccnc(Nc4ccccc4S(C)(=O)=O)n3)cc21 (stereo not drawn) [Compound 334]
IC50 [1, 3]: 3.98 µM
IC50 [2, 4]: > 10 µM

COc1cc(C(=O)N2CCCCCC2)ccc1Nc1nccc(-c2cnc3c(c2)C(C)(CO)CN3)n1 (stereo not drawn) [Compound 141]
IC50 [1, 5]: 0.0102 µM
IC50 [2, 6]: 0.148 µM

COc1cc(S(C)(=O)=O)c(F)cc1Nc1nccc(-c2cnc3c(c2)C(C)(CO)CN3)n1 (stereo not drawn) [Compound 12]
IC50 [1, 3]: 0.0054 µM
IC50 [1, 5]: 0.0016 µM
IC50 [2, 4]: 0.0269 µM

COc1cc(N2CCOCC2)c(C#N)cc1Nc1nccc(-c2cnc3c(c2)C(C)(CO)CN3)n1 (stereo not drawn) [Compound 4]
IC50 [1, 3]: 0.0105 µM
IC50 [1, 5]: 0.0029 µM
IC50 [2, 4]: 0.138 µM

COc1cc(N2CCN(C(C)C)CC2)c(Cl)cc1Nc1nccc(-c2cnc3c(c2)C(C)(CO)CN3)n1 (stereo not drawn) [Compound 14]
IC50 [1, 3]: ~0.003 µM
IC50 [1, 5]: 0.0009 µM
IC50 [2, 4]: 0.0195 µM

COc1cc(C(=O)NC2CCOCC2)ccc1Nc1nccc(-c2cnc3c(c2)C(C)(CC#N)CN3)n1 (stereo not drawn) [Compound 147]
IC50 [1, 5]: 0.0041 µM
IC50 [2, 6]: 0.0525 µM

COc1cc(C(=O)N2CCC(OC)C2)ccc1Nc1nccc(-c2cnc3c(c2)C(C)(CO)CN3)n1 (stereo not drawn) [Compound 136]
IC50 [1, 5]: 0.0033 µM
IC50 [2, 4]: 0.355 µM
IC50 [2, 6]: 0.229 µM

Cc1cc(C(=O)NC2CCN(C)CC2)ccc1Nc1nccc(-c2cnc3c(c2)C(C)(C)CN3)n1 [Compound 35]
IC50 [2, 6]: 0.851 µM

CC(=O)NCc1ccc(C)c(Nc2nccc(-c3cnc4c(c3)C(C)(C)CN4)n2)c1 [Compound 43]
IC50 [2, 6]: 0.282 µM

COc1cc(CNC(C)=O)ccc1Nc1nccc(-c2cnc3c(c2)C(C)(CO)CN3)n1 (stereo not drawn) [Compound 145]
IC50 [1, 5]: 0.0072 µM
IC50 [2, 6]: 0.324 µM

COc1cc(N2CCC(N(C)C)CC2)c(Cl)cc1Nc1nccc(-c2cnc3c(c2)C(C)(CO)CN3)n1 (stereo not drawn) [Compound 277]
IC50 [1, 3]: ~0.003 µM
IC50 [1, 5]: 0.0004 µM
IC50 [2, 4]: 0.0234 µM

COc1cc(C(=O)N2CCCC(OC)CC2)ccc1Nc1nccc(-c2cnc3c(c2)C(C)(CO)CN3)n1 (stereo not drawn) [Compound 150]
IC50 [1, 5]: 0.0054 µM
IC50 [2, 6]: 0.105 µM

CN(C)CCOc1cc(N2CCOCC2)c(Cl)cc1Nc1nccc(-c2cnc3c(c2)C(C)(CO)CN3)n1 (single isomer, unassigned) [Compound 272]
IC50 [1, 3]: 0.151 µM
IC50 [1, 5]: 0.123 µM
IC50 [2, 4]: 9.12 µM

COc1cc(N2CCOCC2)c(C#N)cc1Nc1nccc(-c2cnc3c(c2)C(C)(CO)CN3)n1 (single isomer, unassigned) [Compound 4S]
IC50 [1, 5]: 0.0023 µM
IC50 [2, 4]: ~0.151 µM

CC1(CO)CNc2ncc(-c3ccnc(Nc4ccc(C(=O)NC5CCOCC5)cc4OC(F)F)n3)cc21 (stereo not drawn) [Compound 140]
IC50 [1, 5]: 0.0045 µM
IC50 [2, 6]: 1.07 µM

COc1cc(C(=O)NC2CCOCC2)ccc1Nc1ncc(F)c(-c2cnc3c(c2)C(C)(CO)CN3)n1 (stereo not drawn) [Compound 2]
IC50 [1, 3]: 0.0055 µM
IC50 [2, 6]: 0.0692 µM

COc1cc(N2CCC(O)CC2)c(Cl)cc1Nc1nccc(-c2cnc3c(c2)C(C)(CO)CN3)n1 (stereo not drawn) [Compound 301]
IC50 [1, 3]: 0.0054 µM
IC50 [1, 5]: 0.0011 µM
IC50 [2, 4]: 0.0234 µM

COc1cc(C(=O)NC2CCOCC2)c(Cl)cc1Nc1nccc(-c2cnc3c(c2)C(C)(C)CN3)n1 [Compound 299]
IC50 [1, 3]: 0.0032 µM
IC50 [1, 5]: 0.0009 µM
IC50 [2, 4]: 0.0295 µM

COc1cc(C(=O)N(C)C)ccc1Nc1nccc(-c2cnc3c(c2)C(C)(CO)CN3)n1 (stereo not drawn) [Compound 153]
IC50 [1, 3]: 0.0186 µM
IC50 [2, 6]: 0.427 µM

Cc1cc(C(=O)NC2CCOCC2)ccc1Nc1nccc(-c2cnc3c(c2)C(C)(C)CN3)n1 [Compound 36]
IC50 [2, 6]: 0.617 µM

CN1CCC(Oc2ccc(Cl)cc2Nc2nccc(-c3cnc4c(c3)C(C)(C)CN4)n2)CC1 [Compound 338]
IC50 [1, 7]: 0.0191 µM
IC50 [2, 8]: 3.89 µM

COc1cc(N2CC(OC)C2)c(Cl)cc1Nc1nccc(-c2cnc3c(c2)C(C)(CO)CN3)n1 (stereo not drawn) [Compound 269]
IC50 [1, 5]: 0.0018 µM
IC50 [2, 4]: 0.0417 µM

COc1cc(C(=O)NC2CCOC2)ccc1Nc1nccc(-c2cnc3c(c2)C(C)(CO)CN3)n1 (stereo not drawn) [Compound 137]
IC50 [1, 5]: 0.005 µM
IC50 [2, 4]: 0.339 µM
IC50 [2, 6]: 0.347 µM

COc1cc(N2CC3(CCOCC3)C2)c(Cl)cc1Nc1nccc(-c2cnc3c(c2)C(C)(CO)CN3)n1 (single isomer, unassigned) [Compound 3S]
IC50 [1, 3]: 0.0067 µM
IC50 [1, 5]: 0.0013 µM
IC50 [2, 4]: 0.0173 µM

COc1cc(C(=O)N2CCCCC2)ccc1Nc1nccc(-c2cnc3c(c2)C(C)(CO)CN3)n1 (stereo not drawn) [Compound 139]
IC50 [1, 3]: 0.0069 µM
IC50 [1, 5]: 0.0069 µM
IC50 [2, 4]: 0.166 µM
IC50 [2, 6]: 0.102 µM

COc1cc(C(=O)NC2CCCOCC2)ccc1Nc1nccc(-c2cnc3c(c2)C(C)(CO)CN3)n1 (stereo not drawn) [Compound 142]
IC50 [1, 5]: 0.0135 µM
IC50 [2, 4]: 0.309 µM
IC50 [2, 6]: 0.204 µM

COc1cc(C(=O)NC2CCOCC2)c(Cl)cc1Nc1nccc(-c2cnc3c(c2)C(C)(CO)CN3)n1 (stereo not drawn) [Compound 8]
IC50 [1, 3]: 0.0046 µM
IC50 [1, 5]: 0.0016 µM
IC50 [2, 4]: 0.0083 µM

CN1CCC(Oc2ccc(Cl)cc2Nc2nccc(-c3cnc4c(c3)C(C)(CO)CN4)n2)CC1 (stereo not drawn) [Compound 15]
IC50 [1, 3]: 0.0085 µM
IC50 [2, 4]: 0.479 µM

COc1cc(S(C)(=O)=O)c(F)cc1Nc1nccc(-c2cnc3c(c2)C(C)(C)CN3)n1 [Compound 342]
IC50 [1, 7]: 0.0079 µM
IC50 ([1]; location 2, NIK auto-phosphorylation, AlphaScreen, read-out: Assay B location 2 IC50): 0.0046 µM
IC50 [2, 8]: 0.155 µM

CN1CCC(Oc2ccccc2Nc2nccc(-c3cnc4c(c3)C(C)(CO)CN4)n2)CC1 (stereo not drawn) [Compound 246]
IC50 [1, 3]: 0.0309 µM
IC50 [1, 5]: 0.0178 µM
IC50 [2, 4]: ~2 µM

CC(=O)NCc1cccc(Nc2nccc(-c3cnc4c(c3)C(C)(C)CN4)n2)c1C [Compound 42]
IC50 [2, 6]: 0.166 µM

COc1cc(C(=O)N2CCC(OC)CC2)ccc1Nc1nccc(-c2cnc3c(c2)C(C)(CC#N)CN3)n1 (stereo not drawn) [Compound 148]
IC50 [1, 5]: 0.0048 µM
IC50 [2, 6]: 0.159 µM

COc1cc(N2CCC(O)CC2)c(Cl)cc1Nc1nccc(-c2cnc3c(c2)C(C)(CO)CN3)n1 (single isomer, unassigned) [Compound 343]
IC50 [1, 7]: 0.0191 µM
IC50 ([2]; location 1, P-IKKα levels in L363 cells, 2 hr treatment, read-out: Assay C location 1 IC50): ~7.41 µM

From patent US11236084B2, “Substituted azaindoline derivatives as NIK inhibitors” (Janssen Pharmaceutica NV, priority 2017, dated 2022)
